Activity calls are given as the source filed them. No cut-off for these calls is given here.
Legend:
[1] = target: T1, Thioredoxin reductase (Homo sapiens) (UniProt Q16881+Q9NNW7+Q86VQ6); assay: Inhibition of TrxR in human SGC7901 cells assessed as p38 phosphorylation at 1200 nM after 48 hrs in presence of NAC by Western blot analysis; type: cell-based
SGC-7901 [2] = assay: Induction of mitochondrial membrane depolarization in human SGC7901 cells assessed as cells with intact mitochondrial membrane potential at 1000 nM after 48 hrs in presence of NAC by JC-1 staining based flow cytometric analysis (reference value: 98%); type: functional
SGC-7901 [3] = assay: Induction of apoptosis in human SGC7901 cells assessed as viable cells at 1200 nM after 48 hrs by Annexin V-FITC/propidium iodide staining based flow cytometric analysis (reference value: 95.9 to 96%); type: functional; conditions: SGC-7901, 48 h, read-out: Activity
SGC-7901 [4] = assay: Induction of apoptosis in human SGC7901 cells assessed as necrotic cells at 1000 nM after 48 hrs in presence of NAC by Annexin V-FITC/propidium iodide staining based flow cytometric analysis (reference value: 0.304%); type: functional
SGC-7901 [5] = assay: Cell cycle arrest in human SGC7901 cells assessed as accumulation at G2 phase at 800 nM after 48 hrs by propidium iodide staining based flow cytometric analysis (reference value: 18.77%); type: functional
SGC-7901 [6] = assay: Induction of apoptosis in human SGC7901 cells assessed as necrotic cells at 1200 nM after 48 hrs by Annexin V-FITC/propidium iodide staining based flow cytometric analysis (reference value: 0.052 to 0.304%); type: functional
SGC-7901 [7] = assay: Induction of apoptosis in human SGC7901 cells assessed as necrotic cells at 1200 nM after 48 hrs in presence of NAC by Annexin V-FITC/propidium iodide staining based flow cytometric analysis (reference value: 0.304%); type: functional
SGC-7901 [8] = assay: Induction of mitochondrial membrane depolarization in human SGC7901 cells assessed as cells with mitochondrial membrane potential loss at 1000 nM after 48 hrs in presence of NAC by JC-1 staining based flow cytometric analysis (reference value: 1.65%); type: functional
SGC-7901 [9] = assay: Cell cycle arrest in human SGC7901 cells assessed as accumulation at S phase at 800 nM after 48 hrs by propidium iodide staining based flow cytometric analysis (reference value: 33.30%); type: functional
SGC-7901 [10] = assay: Cell cycle arrest in human SGC7901 cells assessed as accumulation at G2 phase at 600 nM after 48 hrs by propidium iodide staining based flow cytometric analysis (reference value: 18.77%); type: functional
SGC-7901 [11] = assay: Induction of apoptosis in human SGC7901 cells assessed as early apoptotic cells at 1200 nM after 48 hrs by Annexin V-FITC/propidium iodide staining based flow cytometric analysis (reference value: 0.851 to 2.30%); type: functional
SGC-7901 [12] = assay: Induction of apoptosis in human SGC7901 cells assessed as viable cells at 600 nM after 48 hrs by Annexin V-FITC/propidium iodide staining based flow cytometric analysis (reference value: 95.9%); type: functional; conditions: SGC-7901, 48 h, read-out: Activity
[13] = target: T1, Thioredoxin reductase (Homo sapiens); assay: Inhibition of TrxR in human SGC7901 cells assessed as JNK phosphorylation at 1200 nM after 48 hrs in presence of NAC by Western blot analysis; type: cell-based
SGC-7901 [14] = assay: Induction of apoptosis in human SGC7901 cells assessed as viable cells at 1000 nM after 48 hrs in presence of NAC by Annexin V-FITC/propidium iodide staining based flow cytometric analysis (reference value: 96%); type: functional; conditions: SGC-7901, 48 h, read-out: Activity
SGC-7901 [15] = assay: Induction of mitochondrial membrane depolarization in human SGC7901 cells assessed as cells with mitochondrial membrane potential loss at 1200 nM after 48 hrs by JC-1 staining based flow cytometric analysis (reference value: 1.65 to 9.29%); type: functional
SGC-7901 [16] = assay: Induction of apoptosis in human SGC7901 cells assessed as viable cells at 1000 nM after 48 hrs by Annexin V-FITC/propidium iodide staining based flow cytometric analysis (reference value: 95.9 to 96%); type: functional; conditions: SGC-7901, 48 h, read-out: Activity
SGC-7901 [17] = assay: Cell cycle arrest in human SGC7901 cells assessed as accumulation at S phase at 1200 nM after 48 hrs by propidium iodide staining based flow cytometric analysis (reference value: 33.30%); type: functional
SGC-7901 [18] = assay: Induction of apoptosis in human SGC7901 cells assessed as viable cells at 1200 nM after 48 hrs in presence of NAC by Annexin V-FITC/propidium iodide staining based flow cytometric analysis (reference value: 96%); type: functional; conditions: SGC-7901, 48 h, read-out: Activity
SGC-7901 [19] = assay: Cell cycle arrest in human SGC7901 cells assessed as accumulation at S phase at 600 nM after 48 hrs by propidium iodide staining based flow cytometric analysis (reference value: 33.30%); type: functional
SGC-7901 [20] = assay: Induction of apoptosis in human SGC7901 cells assessed as increase in Bax to Bcl-2 ratio level at 1200 nM after 48 hrs in presence of NAC by Western blot analysis; type: functional, cell-based
SGC-7901 [21] = assay: Induction of apoptosis in human SGC7901 cells assessed as increase in Bax to Bcl-2 ratio level at 600 to 1200 nM after 48 hrs by Western blot analysis; type: functional, cell-based
[22] = target: T1, Thioredoxin reductase (Homo sapiens); assay: Inhibition of TrxR in human SGC7901 cells assessed as induction of intracellular ROS generation at 800 to 1000 nM after 5 hrs in presence of NAC by DCFH-DA staining based flow cytometric analysis; type: cell-based
SGC-7901 [23] = assay: Induction of mitochondrial membrane depolarization in human SGC7901 cells assessed as cells with intact mitochondrial membrane potential at 1200 nM after 48 hrs by JC-1 staining based flow cytometric analysis (reference value: 87.3 to 98%); type: functional
SGC-7901 [24] = assay: Antiproliferative activity against human SGC7901 cells after 48 hrs by MTT assay; type: functional, cell-based; conditions: SGC-7901, 48 h
SGC-7901 [25] = assay: Cell cycle arrest in human SGC7901 cells assessed as accumulation at G1 phase at 600 nM after 48 hrs by propidium iodide staining based flow cytometric analysis (reference value: 47.93%); type: functional
[26] = target: T1, Thioredoxin reductase (Homo sapiens); assay: Inhibition of TrxR in human SGC7901 cells assessed as JNK phosphorylation at 600 to 1200 nM after 48 hrs by Western blot analysis; type: cell-based
SGC-7901 [27] = assay: Cell cycle arrest in human SGC7901 cells assessed as accumulation at G1 phase after 48 hrs by propidium iodide staining based flow cytometric analysis; type: functional
SGC-7901 [28] = assay: Induction of apoptosis in human SGC7901 cells assessed as decrease in PARP level at 600 to 1200 nM after 48 hrs by Western blot analysis; type: functional, cell-based
SGC-7901 [29] = assay: Induction of apoptosis in human SGC7901 cells assessed as late apoptotic cells at 600 nM after 48 hrs by Annexin V-FITC/propidium iodide staining based flow cytometric analysis (reference value: 1.73%); type: functional
SGC-7901 [30] = assay: Induction of apoptosis in human SGC7901 cells assessed as early apoptotic cells at 1000 nM after 48 hrs by Annexin V-FITC/propidium iodide staining based flow cytometric analysis (reference value: 0.851 to 2.30%); type: functional
SGC-7901 [31] = assay: Induction of apoptosis in human SGC7901 cells assessed as necrotic cells at 800 nM after 48 hrs by Annexin V-FITC/propidium iodide staining based flow cytometric analysis (reference value: 0.052%); type: functional

T1 sequence (Q16881 whole entry, looked up): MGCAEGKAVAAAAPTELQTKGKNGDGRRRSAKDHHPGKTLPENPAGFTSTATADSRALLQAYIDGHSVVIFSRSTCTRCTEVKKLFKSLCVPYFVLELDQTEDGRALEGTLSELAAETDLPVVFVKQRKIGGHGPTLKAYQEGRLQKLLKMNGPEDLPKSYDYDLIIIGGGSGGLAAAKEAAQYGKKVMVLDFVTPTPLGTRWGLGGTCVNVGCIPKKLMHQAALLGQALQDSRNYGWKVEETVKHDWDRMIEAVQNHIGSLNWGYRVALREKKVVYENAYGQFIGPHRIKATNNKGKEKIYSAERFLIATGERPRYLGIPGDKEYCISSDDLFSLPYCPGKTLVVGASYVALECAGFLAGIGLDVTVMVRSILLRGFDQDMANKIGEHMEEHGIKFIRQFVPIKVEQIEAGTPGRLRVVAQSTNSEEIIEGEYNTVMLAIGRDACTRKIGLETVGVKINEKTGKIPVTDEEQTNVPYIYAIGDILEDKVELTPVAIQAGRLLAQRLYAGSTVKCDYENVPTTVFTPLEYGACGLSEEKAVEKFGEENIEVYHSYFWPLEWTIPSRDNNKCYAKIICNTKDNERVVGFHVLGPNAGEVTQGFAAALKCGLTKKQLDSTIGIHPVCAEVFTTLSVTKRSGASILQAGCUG
T1 sequence (Q86VQ6 whole entry, looked up): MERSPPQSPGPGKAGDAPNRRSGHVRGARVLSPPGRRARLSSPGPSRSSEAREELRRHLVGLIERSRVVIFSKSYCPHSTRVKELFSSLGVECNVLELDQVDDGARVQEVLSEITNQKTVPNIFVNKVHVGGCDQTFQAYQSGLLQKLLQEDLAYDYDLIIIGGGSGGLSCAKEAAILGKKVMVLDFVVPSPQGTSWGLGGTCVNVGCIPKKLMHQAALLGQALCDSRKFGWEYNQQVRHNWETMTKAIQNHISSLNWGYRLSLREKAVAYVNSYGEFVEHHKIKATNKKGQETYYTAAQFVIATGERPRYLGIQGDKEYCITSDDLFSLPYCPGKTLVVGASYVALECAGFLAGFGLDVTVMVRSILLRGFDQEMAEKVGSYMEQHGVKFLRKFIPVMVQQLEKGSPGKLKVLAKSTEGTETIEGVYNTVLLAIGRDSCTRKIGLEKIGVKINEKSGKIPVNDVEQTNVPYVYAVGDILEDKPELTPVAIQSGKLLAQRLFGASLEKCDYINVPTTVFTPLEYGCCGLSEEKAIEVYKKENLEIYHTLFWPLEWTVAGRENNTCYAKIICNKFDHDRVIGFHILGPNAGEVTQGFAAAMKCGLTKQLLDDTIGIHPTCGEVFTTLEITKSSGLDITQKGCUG
T1 sequence (Q9NNW7 whole entry, looked up): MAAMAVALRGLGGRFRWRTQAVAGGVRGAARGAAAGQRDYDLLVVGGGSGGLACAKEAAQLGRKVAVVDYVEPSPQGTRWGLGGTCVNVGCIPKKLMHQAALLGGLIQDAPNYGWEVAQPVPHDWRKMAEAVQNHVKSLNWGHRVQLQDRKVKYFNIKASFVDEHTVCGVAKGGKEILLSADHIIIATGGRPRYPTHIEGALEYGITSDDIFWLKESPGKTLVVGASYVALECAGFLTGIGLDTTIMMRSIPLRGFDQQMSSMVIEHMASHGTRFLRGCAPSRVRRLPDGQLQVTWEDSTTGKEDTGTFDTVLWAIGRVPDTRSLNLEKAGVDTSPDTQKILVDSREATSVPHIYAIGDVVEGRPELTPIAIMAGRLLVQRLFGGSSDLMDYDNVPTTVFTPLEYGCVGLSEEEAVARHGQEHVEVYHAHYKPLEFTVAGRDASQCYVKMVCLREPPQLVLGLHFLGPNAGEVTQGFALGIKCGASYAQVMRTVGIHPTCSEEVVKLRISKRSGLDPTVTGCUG

With `COc1cc(OC)c2c(=O)c(OCCCOc3ccccc3/C=C/C(=O)/C=C/c3ccccn3)c(-c3cc(OC)c(OC)c(OC)c3)oc2c1` the inhibition [1] was “inactive”, the Activity (SGC-7901 [2]) was 97.3% and the viability at 1.2 µM (SGC-7901 [3]) was 24.6 to 43.7%. For the same molecule, the Activity (SGC-7901 [4]) was 0.92%, the Activity (SGC-7901 [5]) was 13.48% and the Activity (SGC-7901 [6]) was 0.131 - 1.62%. For the same molecule, the Activity (SGC-7901 [7]) was 0.225%, the Activity (SGC-7901 [8]) was 2.32% and the Activity (SGC-7901 [9]) was 35.37%. For the same molecule, the Activity (SGC-7901 [10]) was 15.61%, the Activity (SGC-7901 [11]) was 29.8 - 55.2% and the viability at 0.6 µM (SGC-7901 [12]) was 87.7%. The inhibition [13] was “inactive”, the viability at 1 µM (SGC-7901 [14]) was 94.1% and the Activity (SGC-7901 [15]) was 55.4 - 63.7%. For the same molecule, the viability at 1 µM (SGC-7901 [16]) was 50.1 to 59.6%, the Activity (SGC-7901 [17]) was 36.26% and the viability at 1.2 µM (SGC-7901 [18]) was 74.1%. The Activity (SGC-7901 [19]) was 35.47%, the Activity (SGC-7901 [20]) was “inactive” and the Activity (SGC-7901 [21]) was “Active”. For the same molecule, the inhibition [22] was “inactive”, the Activity (SGC-7901 [23]) was 35.4 - 40.2% and the IC50 (SGC-7901 [24]) was 1080 nM. The Activity (SGC-7901 [25]) was 48.92%, the inhibition [26] was “Active” and the Activity (SGC-7901 [27]) was “Dose-dependent effect”. The Activity (SGC-7901 [28]) was “Active”, the Activity (SGC-7901 [29]) was 6.4% and the Activity (SGC-7901 [30]) was 24.7 - 32.2%. The Activity (SGC-7901 [31]) was 0.425%.

Reference: ChEMBL document CHEMBL4270560, “Novel curcumin analogue hybrids: Synthesis and anticancer activity” (Eur J Med Chem, 2018)
